Series [1] deals with DENV-3 strain H87 prototype. Briefly: Antiviral activity against DENV-3 in Vero-B cells (viral RNA load by RT-qPCR). Type of series: cell-based, Dengue virus.
A further series concerns DENV-2 NGC. Briefly: Antiviral activity against DENV-2 NGC in Vero-B cells (viral RNA load by RT-qPCR). The series is classed as cell-based, Dengue virus. The settings on record: DENV-2 in Vero-B cells, inhibition of viral RNA replication by 50% (Table 3).
Series [2] has as its system DENV-4 strain Dak HD 34 460. Briefly: Antiviral activity against DENV-4 in Vero-B cells (viral RNA load by RT-qPCR). The series is classed as cell-based, Dengue virus. As to conditions: Dengue virus, DENV4, Vero B.
Series [3] has as its system DENV-1 Djibouti strain D1/H/IMTSSA/98/606. The experiment in a line: Antiviral activity against DENV-1 in Vero-B cells (viral RNA load by RT-qPCR). The series is classed as cell-based, Dengue virus.
A further series is described as follows: in vitro. As to conditions: African green monkey; for CC50 at 4 days: uninfected quiescent Vero-B cells.

Drawing on patent US12012411B2, “Viral replication inhibitors” (Katholieke Universiteit Leuven, priority 2011, dated 2024), this text covers EC50 and CC50 for 15 compounds.

Read-outs that look alike come from different tables or passages of the source.

Take `COc1cccc(NC(C(=O)c2nn(C)c3cc(OC)ccc23)c2ccccc2)c1` (stereo not shown) [CPD-266]: the EC50 in series [1] (Dengue virus, DENV3, Vero B) came out at 4.32 µM; in the series with DENV-2 NGC (Dengue virus, DENV2, Vero B) it was 0.06 µM; in series [2] it was 3.51 µM; in series [3] (Dengue virus, DENV1, Vero B), 0.7 µM. Moreover, in “in vitro”, the CC50 at 4 days is > 124 µM.
Taken in the same sequence, the figures for `COc1cc(NC(C(=O)c2c[nH]c3ccccc23)c2ccccc2)cc(OC)n1` (stereo not shown) [CPD-319] were 1.7 µM, 0.12 µM, 2.27 µM, 2.84 µM and 20 µM.
With `COc1cccc(NC(C(=O)c2cn(CCO)c3ccc(F)cc23)c2ccccc2)c1` (stereo not shown) [CPD-146], the EC50 turned out to be 2.72 µM in series [1] (Dengue virus, DENV3, Vero B); 0.05 µM in the series with DENV-2 NGC (Dengue virus, DENV2, Vero B); 4.25 µM in series [2]; 0.69 µM in series [3] (Dengue virus, DENV1, Vero B). Also, the CC50 in the series “in vitro” was found to be 25 µM.
Take `COc1cc(CO)cc(NC(C(=O)c2c[nH]c3ccc(F)cc23)c2ccccc2)c1` (stereo not shown) [CPD-296]: the EC50 in series [1] (Dengue virus, DENV3, Vero B) came out at 1.83 µM; in the series with DENV-2 NGC (Dengue virus, DENV2, Vero B), 0.05 µM; in series [2] it was 3.31 µM; in series [3] (Dengue virus, DENV1, Vero B) it was 0.99 µM. In addition, in the series “in vitro”, the CC50 at 4 days turned out to be 31 µM.
Turning to `COc1cncc(NC(C(=O)c2c[nH]c3ccc(F)cc23)c2ccc(OC)nc2)c1` (stereo not shown) [CPD-241], the EC50 in series [1] (Dengue virus, DENV3, Vero B) is 0.62 µM; in the series on DENV-2 NGC (Dengue virus, DENV2, Vero B), 0.04 µM; in series [2] it was 5.69 µM; in series [3] (Dengue virus, DENV1, Vero B), 0.62 µM. The CC50 at 4 days in “in vitro” is 58 µM.
In the case of `COc1cccc(NC(C(=O)c2c[nH]c3cc(F)ccc23)c2cccnc2)c1` (stereo not shown) [CPD-152], the EC50 came to 0.99 µM in series [1] (Dengue virus, DENV3, Vero B); 0.09 µM in the series with DENV-2 NGC (Dengue virus, DENV2, Vero B); 5.62 µM in series [2]; 2.05 µM in series [3] (Dengue virus, DENV1, Vero B). Moreover, the CC50 at 4 days in the series “in vitro” came out at 75 µM.
Turning to `COc1cc(NC(C(=O)c2c[nH]c3c(C)cccc23)c2ccccc2)cc(OC)c1` (stereo not shown) [CPD-337], the EC50 in series [1] (Dengue virus, DENV3, Vero B) was determined as 0.23 µM; with DENV-2 NGC (Dengue virus, DENV2, Vero B), 0.005 µM; in series [2], 0.95 µM; in series [3] (Dengue virus, DENV1, Vero B), 0.09 µM. The compound further registered a CC50 at 4 days in the series “in vitro” of 15 µM.
With `COc1cncc(NC(C(=O)c2c[nH]c3ccccc23)c2ccccc2)c1` (single isomer, unassigned) [CPD-299], the EC50 in series [1] came to 0.78 µM; in the series with DENV-2 NGC, 0.02 µM; in series [2] it was 3.65 µM; in series [3], 0.5 µM. Besides, the CC50 at 4 days in “in vitro” came out at 62 µM.
As for `COc1cccc(NC(C(=O)c2c[nH]c3ccc(C#N)cc23)c2ccccc2)c1` (stereo not shown) [CPD-126], the EC50 in series [1] (Dengue virus, DENV3, Vero B) is 8.5 µM; in the series on DENV-2 NGC (Dengue virus, DENV2, Vero B), 0.07 µM; in series [2], 6.29 µM; in series [3] (Dengue virus, DENV1, Vero B) it was 2.99 µM. The same compound came in with a CC50 at 4 days in “in vitro” of 16 µM.
The matching figures for `COc1cccc(NC(C(=O)c2c[nH]c3ccccc23)c2ccc(F)nc2)c1` (stereo not shown) [CPD-214]: 0.99 µM, 0.03 µM, 4.16 µM, 0.15 µM and 16 µM.
In the case of `COc1cccc(NC(C(=O)c2c[nH]c3c(Cl)cccc23)c2ccc(C#N)cc2)c1` (stereo not shown) [CPD-120], the EC50 in series [1] (Dengue virus, DENV3, Vero B) turned out to be 5.18 µM; in the series on DENV-2 NGC (Dengue virus, DENV2, Vero B), 0.02 µM; in series [3] (Dengue virus, DENV1, Vero B) it was 2.31 µM. The compound further displayed a CC50 at 4 days in “in vitro” of 11 µM.
With `COc1cc(NC(C(=O)c2c[nH]c3ccccc23)c2ccccc2)ccc1Cl` (stereo not shown) [CPD-004], the EC50 in series [1] (Dengue virus, DENV3, Vero B) was 8.55 µM; in the series on DENV-2 NGC (Dengue virus, DENV2, Vero B) it was 0.19 µM; in series [3] (Dengue virus, DENV1, Vero B) it was 4.53 µM. This compound showed a CC50 at 4 days in “in vitro” of 11 µM.
As to `COc1cc(CO)cc(NC(C(=O)c2cn(C)c3ccccc23)c2ccccc2)c1` (stereo not shown) [CPD-307], the EC50 was found to be 0.18 µM in the series with DENV-2 NGC (Dengue virus, DENV2, Vero B); 11.5 µM in series [2]; 2.43 µM in series [3] (Dengue virus, DENV1, Vero B). For the same compound, in “in vitro”, the CC50 at 4 days was > 124 µM.
Consider `COc1cccc(NC(C(=O)c2cn(CCCO)c3ccccc23)c2ccccc2)c1` (stereo not shown) [CPD-128], for which the EC50 was found to be 18.4 µM in series [1] (Dengue virus, DENV3, Vero B); 0.56 µM in the series on DENV-2 NGC (Dengue virus, DENV2, Vero B); 7.5 µM in series [3] (Dengue virus, DENV1, Vero B). In the series “in vitro”, this compound registered a CC50 of 63 µM.
On to `COc1cccc(NC(C(=O)c2c[nH]c3cc(Cl)ccc23)c2cc(C)on2)c1` (stereo not shown) [CPD-116], for which the concentration giving a half-maximal response (EC50) was found to be 9.3 µM in series [1] (Dengue virus, DENV3, Vero B); 0.14 µM in the series on DENV-2 NGC (Dengue virus, DENV2, Vero B); 4.19 µM in series [3] (Dengue virus, DENV1, Vero B). The compound also returned a CC50 at 4 days in the series “in vitro” of 13 µM.
